From patent US12070455B2, “Thienopyrrole compounds” (Gilead Sciences, Inc., priority 2021, dated 2024)

Assays:
[1] = target: T1, TLR8 (Homo sapiens, UniProt Q9NR97); assay: TLR8 human peripheral blood mononuclear cell (PBMC) cell-based assay; conditions: human PBMCs; 1 h with antagonist, then TLR8 agonist Compound A 800 nM for 6 h; cytokines (TNFa and IL12p40) in supernatant; read-out: TLR-8 EC50
T1 construct: Human peripheral blood mononuclear cells (PBMCs) consist of lymphocytes, monocytes and dendritic cells that express TLR7, TLR8 and TLR9; endogenous in cells; host or cells: cryopreserved human PBMCs from healthy donors
T1 sequence (Q9NR97 27-1041): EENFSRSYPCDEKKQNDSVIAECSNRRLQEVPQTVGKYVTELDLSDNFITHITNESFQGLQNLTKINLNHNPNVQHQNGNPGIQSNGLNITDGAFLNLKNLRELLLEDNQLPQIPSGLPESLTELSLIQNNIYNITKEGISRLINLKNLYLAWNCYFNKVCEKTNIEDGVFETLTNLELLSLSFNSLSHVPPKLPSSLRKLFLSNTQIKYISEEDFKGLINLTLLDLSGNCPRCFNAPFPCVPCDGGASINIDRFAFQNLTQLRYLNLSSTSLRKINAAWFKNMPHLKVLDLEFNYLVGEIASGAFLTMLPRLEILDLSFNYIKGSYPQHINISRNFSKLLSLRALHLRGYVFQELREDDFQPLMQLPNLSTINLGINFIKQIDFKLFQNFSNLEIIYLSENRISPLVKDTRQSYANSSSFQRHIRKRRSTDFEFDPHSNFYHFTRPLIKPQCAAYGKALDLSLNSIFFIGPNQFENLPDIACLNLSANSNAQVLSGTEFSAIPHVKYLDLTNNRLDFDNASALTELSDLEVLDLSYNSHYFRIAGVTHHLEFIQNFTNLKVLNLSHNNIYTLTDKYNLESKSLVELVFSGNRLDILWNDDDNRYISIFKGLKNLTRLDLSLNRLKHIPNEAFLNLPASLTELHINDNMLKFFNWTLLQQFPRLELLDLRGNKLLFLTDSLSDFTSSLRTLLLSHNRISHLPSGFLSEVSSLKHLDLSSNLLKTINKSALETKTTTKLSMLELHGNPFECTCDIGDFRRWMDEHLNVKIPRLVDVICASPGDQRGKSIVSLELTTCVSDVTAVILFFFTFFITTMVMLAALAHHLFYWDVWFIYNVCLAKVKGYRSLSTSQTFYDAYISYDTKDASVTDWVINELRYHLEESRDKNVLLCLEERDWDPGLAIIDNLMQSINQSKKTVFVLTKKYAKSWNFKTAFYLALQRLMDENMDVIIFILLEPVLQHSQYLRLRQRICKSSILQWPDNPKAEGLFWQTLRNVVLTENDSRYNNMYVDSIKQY
Experimental: TLR8 Human Peripheral Blood Mononuclear Cell (PBMC) Cell-Based Assay
Cryopreserved human PBMCs from healthy donors were thawed and resuspended in RPMI-1640 media with L-glutamine (Corning) supplemented with 10% Fetal Bovine Serum (Hyclone) and 1× Penicillin-Streptomycin (Corning). After counting, the cell density was adjusted to 2 million cells/ml and incubated for 1 hour at 37° C., 5% CO2 for recovery. Following the recovery, the cells were plated by adding 50 μl per well (100,000 cells) to 384-well cell culture plates (Greiner) containing 250 nl of test antagonists in 100% DMSO per well, in a 10 points dose response in quadruplicates. PBMCs were incubated in the presence of antagonists for one hour at 37° C., 5% CO2 before being stimulated with TLR8 agonist. Compound A (Gilead Sciences, U.S. Pat. No. 10,285,990) was used as the TLR8 agonist at a final concentration of 800 nM. PBMCs were incubated in the presence of antagonist and the TLR8 agonist for an additional 6 hours at 37° C., 5% CO2. At the end of the incubation, the cell culture plates were centrifuged at 500 g for 5 min, and the cell culture supernatant was collected. The level of cytokines (TNFa and IL12p40) in the supernatant was measured by electrochemiluminescence immunoassays (Mesoscale Discovery) following manufacturer's recommended protocols. The level of cytokine measured was plotted against the antagonist concentration and fitted to a sigmoidal function to determine the EC50, which are shown below in Table 6.

[2] = target: T2, TLR7 (Homo sapiens, UniProt Q9NYK1); assay: TLR7 human peripheral blood mononuclear cell (PBMC) cell-based assay; conditions: human PBMCs; 1 h with test antagonist, then TLR7 agonist GS-986 400 nM for 6 h; cytokines (IL-6 and IFNα) in supernatant; read-out: TLR-7 EC50
T2 construct: Human peripheral blood mononuclear cells (PBMCs) consist of lymphocytes, monocytes and dendritic cells that express TLR7, TLR8 and TLR9; endogenous in cells; host or cells: cryopreserved human PBMCs from healthy donors
T2 sequence (Q9NYK1 27-1049): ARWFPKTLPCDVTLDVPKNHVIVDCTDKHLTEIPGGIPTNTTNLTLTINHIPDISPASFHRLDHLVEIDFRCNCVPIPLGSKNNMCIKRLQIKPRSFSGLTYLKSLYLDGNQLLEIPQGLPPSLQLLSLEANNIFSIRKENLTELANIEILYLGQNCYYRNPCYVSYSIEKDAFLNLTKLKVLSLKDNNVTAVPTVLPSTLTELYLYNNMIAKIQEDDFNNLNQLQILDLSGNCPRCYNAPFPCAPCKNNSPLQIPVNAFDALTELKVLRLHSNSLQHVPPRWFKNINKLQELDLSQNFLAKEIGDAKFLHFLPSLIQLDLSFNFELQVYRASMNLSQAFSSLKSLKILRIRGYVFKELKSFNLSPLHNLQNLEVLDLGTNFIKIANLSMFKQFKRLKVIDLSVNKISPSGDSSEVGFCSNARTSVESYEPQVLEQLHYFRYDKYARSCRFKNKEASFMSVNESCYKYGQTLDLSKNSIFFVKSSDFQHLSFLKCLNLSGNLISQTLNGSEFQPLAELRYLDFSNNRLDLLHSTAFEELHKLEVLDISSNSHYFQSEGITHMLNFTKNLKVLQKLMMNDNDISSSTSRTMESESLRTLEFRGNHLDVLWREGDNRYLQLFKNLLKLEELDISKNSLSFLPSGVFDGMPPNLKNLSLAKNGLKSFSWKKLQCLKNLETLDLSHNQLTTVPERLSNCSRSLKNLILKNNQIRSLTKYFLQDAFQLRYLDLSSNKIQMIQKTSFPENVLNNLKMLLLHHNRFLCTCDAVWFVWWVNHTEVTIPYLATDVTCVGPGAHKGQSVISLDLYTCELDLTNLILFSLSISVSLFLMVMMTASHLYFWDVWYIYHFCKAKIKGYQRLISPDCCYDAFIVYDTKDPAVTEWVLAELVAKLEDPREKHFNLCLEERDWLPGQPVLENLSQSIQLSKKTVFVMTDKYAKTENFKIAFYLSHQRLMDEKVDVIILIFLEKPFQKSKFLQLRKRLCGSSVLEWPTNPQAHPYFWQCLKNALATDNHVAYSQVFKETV
From the text: TLR7/9 Human Peripheral Blood Mononuclear Cell (PBMC) Cell-Based Assay
Human peripheral blood mononuclear cells (PBMCs) consist of lymphocytes, monocytes and dendritic cells that express TLR7, TLR8 and TLR9. These cells respond to TLR7, TLR8 and TLR9 ligand stimulation and produce cytokines and chemokines in vitro and in vivo. Human PBMCs are therefore suitable to be used in a cell-based assay to assess the in vitro potency of a TLR 7, 8, and/or 9 antagonist.
Cryopreserved human PBMCs from healthy donors were thawed and resuspended in RPMI-1640 media with L-glutamine (Corning) supplemented with 10% Fetal Bovine Serum (Hyclone) and 1× Penicillin-Streptomycin (Corning). After counting, the cell density was adjusted to 2 million cells/ml and incubated for 1 hour at 37° C., 5% CO2 for recovery. Following the recovery, the cells were plated by adding 50 μl per well (100,000 cells) to 384-well cell culture plates (Greiner) containing 250 nl of test antagonists in 100% DMSO per well, in a 10 points dose response in quadruplicates. PBMCs were incubated in the presence of test antagonists for one hour at 37° C., 5% CO2 before being stimulated with a TLR7 or TLR9 agonist. GS-986 (Gilead Sciences) was used as the TLR7 agonist at a final concentration of 400 nM. ODN-2216 (InvivoGen) was used as the TLR9 agonist at a final concentration of 3 μM. PBMCs were incubated in the presence of the test antagonist and the TLR7 (or TLR9) agonist for an additional 6 hours at 37° C., 5% CO2. At the end of the incubation, the cell culture plates were centrifuged at 500 g for 5 min, and the cell culture supernatant was collected. The level of cytokines (IL-6 and IFNα) in the supernatant was measured by electrochemiluminescence immunoassays (Mesoscale Discovery) following manufacturer's recommended protocols. The level of cytokine measured was plotted against the test antagonist concentration and fitted to a sigmoidal function to determine the EC50, which are shown below in Table 6.

SMILES	EC50 [1] [nM]	EC50 [2] [nM]
Cc1c(C2CC3CCC(C2)N3CC(N)=O)sc2[nH]c(-c3cn4ncnc4c4c3CCC4)c(C(C)C)c12 (centres unmarked) [Example 7]	3.91	0.78
Cc1c(C2CCN(C(=O)[C@H]3C[C@H](O)CN3)CC2)sc2[nH]c(-c3cn4ncnc4c4c3CCC4)c(C(C)C)c12 [Example 32]	11.3	1.5
Cc1c(C2CCN(C(=O)[C@H]3COCCN3)CC2)sc2[nH]c(-c3cn4ncnc4c4c3CCO4)c(C(C)C)c12 [Example 37]	24.5	2.95
Cc1nc2c3c(c(-c4[nH]c5sc(C6CCN(C(=O)[C@H]7COCCN7)CC6)c(C)c5c4C(C)C)cn2n1)CCC3 [Example 53]	16.2	0.62
Cc1c(C23CCN(CC(N)=O)CC2C3)sc2[nH]c(-c3cn4ncnc4c4c3CCC4)c(C(C)C)c12 (centres unmarked) [Example 10]	15.3	0.26
Cc1nc2c3c(c(-c4[nH]c5sc([C@@H]6C[C@@H]7C[C@H]6CN7CC(N)=O)c(C)c5c4C(C)C)cn2n1)COC3 [Example 43, 2-((1S,4R,5R)-5-(4-isopropyl-3-methyl-5-(2-methyl-7,9-dihydrofuro[3,4-c][1,2,4]triazolo[1,5-a]pyridin-6-yl)-6H-thieno[2,3-b]pyrrol-2-yl)-2-azabicyclo[2.2.1]heptan-2-yl)acetamide]	2.05	1.1
Cc1c(-c2cn(C3CCNCC3)nn2)sc2[nH]c(-c3cn4ncnc4c4c3CCC4)c(C(C)C)c12 [Example 24]	0.21	0.94
Cc1c(C2CCN(CC(N)=O)CC2)sc2[nH]c(-c3cn4ncnc4c4c3COC4)c(C(C)C)c12 [Example 45]	63.6	4
Cc1c(C2CC3CCC(C2)N3)sc2[nH]c(-c3cn4ncnc4c4c3CCC4)c(C(C)C)c12 (centres unmarked) [Example 2]	3.94	0.95
Cc1c(C2CC3(CCN(CC(N)=O)C3)C2)sc2[nH]c(-c3cn4ncnc4c4c3CCC4)c(C(C)C)c12 (centres unmarked) [Example 9]	0.32	1.17
